The record followed here is patent US7452902B2, “Imidazopyridines as cyclin dependent kinase inhibitors” (Schering Corporation, priority 2002, dated 2008).

The target in the assay is T1, Cyclin E/CDK2 (Homo sapiens, UniProt P24941).
T1 construct: The expressed protein was approximately 34 kDa in size; made in house; host or cells: SF9 insect cells (baculovirus, pVL1393)
As to the kind of experiment: Cyclin E/CDK2 in vitro kinase assay (SPA, 33P-ATP, biotinylated Histone H1 peptide). The assay is classed as biochemical. As to conditions: recombinant cyclin E/CDK2 from SF9 cells; 1 hour at room temperature; 8 point serial dilutions in duplicate.

Turning to `Clc1ccccc1-c1cc(NCc2cncnc2)c2ncc(Br)n2c1`, the IC50 (as a rule, the point on the concentration scale where inhibition reaches its midpoint) turned out to be 36 nM.

On to `Brc1cnc2c(NCc3cncnc3)cc(-c3ccccc3)cn12`, for which the IC50 was determined as 120 nM.

`Nc1ncc(CNc2cc(-c3ccccc3Cl)cn3c(Br)cnc23)cn1`: the IC50 turned out to be 76 nM.
